Test results published in ChEMBL document CHEMBL1201862, “PubChem BioAssay data set” (2004).
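Tested at 5 concentrations; 48 h exposure; 96-well plates; endpoints linearly interpolated, else capped at highest concentration. Here, GI50 denotes the concentration required for 50% inhibition of growth.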 Activity calls are given as the source filed them. No stated cut-off is given here; in the data, active = GI50 up to about 1.1 µM and inactive = higher.

Experiments:
Test in all cases: NCI-60 cell line screen, 48 h
[1] = tested on: HL-60
[2] = tested on: DU-145
[3] = tested on: SN12C
[4] = tested on: RPMI-8226
[5] = tested on: SF-268
[6] = tested on: T47D
[7] = tested on: MDA-MB-435
[8] = tested on: SK-MEL-5
[9] = tested on: HOP-62
[10] = tested on: K562
[11] = tested on: HOP-92
[12] = tested on: MDA-MB-231
[13] = tested on: A549
[14] = tested on: COLO 205
[15] = tested on: U-251
[16] = tested on: PC-3
[17] = tested on: UO-31
[18] = tested on: LOX IMVI
[19] = tested on: OVCAR-5
[20] = tested on: CAKI-1
[21] = tested on: MDA-N
[22] = tested on: OVCAR-8
[23] = tested on: M14
[24] = tested on: HCT-116
[25] = tested on: NCI-H522
[26] = tested on: OVCAR-4
[27] = tested on: MOLT-4
[28] = tested on: IGROV-1
[29] = tested on: SNB-75
[30] = tested on: SF-295
[31] = tested on: TK-10
[32] = tested on: SK-MEL-2
[33] = tested on: A498
[34] = tested on: UACC-257
[35] = tested on: KM12
[36] = tested on: OVCAR-3
[37] = tested on: NCI-H226
[38] = tested on: Hs-578T
[39] = tested on: NCI-H460
[40] = tested on: HT-29
[41] = tested on: NCI/ADR-RES
[42] = tested on: ACHN
[43] = tested on: EKVX
[44] = tested on: SF-539
[45] = tested on: SW-620
[46] = tested on: SNB-19
[47] = tested on: 786-0
[48] = tested on: RXF 393
[49] = tested on: HCT-15
[50] = tested on: SK-OV-3
[51] = tested on: CCRF-CEM
[52] = tested on: Malme-3M
[53] = tested on: HCC 2998
[54] = tested on: NCI-H23
[55] = tested on: UACC-62
[56] = tested on: SR
[57] = tested on: SK-MEL-28

SMILES: CCN(CC)C(=O)CCNC(C)Cc1c[nH]c2ccccc12 (configuration not stated)
- GI50 [1]: > 100 µM (inactive)
- GI50 [2]: > 100 µM (inactive)
- GI50 [3]: > 100 µM (inactive)
- GI50 [4]: > 100 µM (inactive)
- GI50 [5]: > 100 µM (inactive)
- GI50 [6]: > 100 µM (inactive)
- GI50 [7]: > 100 µM (inactive)
- GI50 [8]: > 100 µM (inactive)
- GI50 [9]: > 100 µM (inactive)
- GI50 [10]: > 100 µM (inactive)
- GI50 [11]: 96.8 µM (inactive)
- GI50 [12]: > 100 µM (inactive)
- GI50 [13]: > 100 µM (inactive)
- GI50 [14]: > 100 µM (inactive)
- GI50 [15]: > 100 µM (inactive)
- GI50 [16]: > 100 µM (inactive)
- GI50 [17]: > 100 µM (inactive)
- GI50 [18]: > 100 µM (inactive)
- GI50 [19]: > 100 µM (inactive)
- GI50 [20]: > 100 µM (inactive)
- GI50 [21]: > 100 µM (inactive)
- GI50 [22]: > 100 µM (inactive)
- GI50 [23]: > 100 µM (inactive)
- GI50 [24]: > 100 µM (inactive)
- GI50 [25]: > 100 µM (inactive)
- GI50 [26]: > 100 µM (inactive)
- GI50 [27]: > 100 µM (inactive)
- GI50 [28]: > 100 µM (inactive)
- GI50 [29]: > 100 µM (inactive)
- GI50 [30]: > 100 µM (inactive)
- GI50 [31]: > 100 µM (inactive)
- GI50 [32]: > 100 µM (inactive)
- GI50 [33]: > 100 µM (inactive)
- GI50 [34]: > 100 µM (inactive)
- GI50 [35]: > 100 µM (inactive)
- GI50 [36]: > 100 µM (inactive)
- GI50 [37]: > 100 µM (inactive)
- GI50 [38]: > 100 µM (inactive)
- GI50 [39]: > 100 µM (inactive)
- GI50 [40]: > 100 µM (inactive)
- GI50 [41]: > 100 µM (inactive)
- GI50 [42]: > 100 µM (inactive)
- GI50 [43]: > 100 µM (inactive)
- GI50 [44]: > 100 µM (inactive)
- GI50 [45]: > 100 µM (inactive)
- GI50 [46]: > 100 µM (inactive)
- GI50 [47]: > 100 µM (inactive)
- GI50 [48]: > 100 µM (inactive)
- GI50 [49]: > 100 µM
- GI50 [50]: > 100 µM (inactive)
- GI50 [51]: > 100 µM (inactive)
- GI50 [52]: > 100 µM (inactive)
- GI50 [53]: > 100 µM (inactive)
- GI50 [54]: > 100 µM (inactive)
- GI50 [55]: > 100 µM (inactive)
- GI50 [56]: > 100 µM (inactive)
- GI50 [57]: > 100 µM (inactive)
